Experiment [1] is described as follows: Inhibition of BRAF V600E mutant in human A375 cells assessed as reduction in cell proliferation incubated for 96 hrs by MTT assay. In general terms: Tetrazolium dyes change colour on reduction, which living cells bring about.
Experiment [2] can be described thus: Inhibition of BCR-ABL (unknown origin) expressed in mouse BA/F3 cells assessed as reduction in cell proliferation incubated for 48 hrs by MTT assay.

Each structure is given as a SMILES string.

By IC50 is commonly meant the concentration at which inhibition is half-maximal. For the compound `CC(C)n1nc(C#Cc2cccc3cc(-c4cccc(C(F)(F)F)c4)ncc23)c2c(N)ncnc21`, the IC50 was > 10000 nM in experiment [1] and 942 nM in experiment [2].

For `CC(C)n1nc(C#Cc2cccc(NC(=O)c3cccc(C(F)(F)F)c3)c2)c2c(N)ncnc21`, in experiment [1], the IC50 was 97 nM.

Consider `CC(C)n1nc(C#Cc2cccc3cc(-c4ccc(CN5CCN(C)CC5)cc4)ncc23)c2c(N)ncnc21`, for which the IC50 in experiment [1] is > 10000 nM; in experiment [2], 354 nM.

In the case of `Cc1ccc2cc(-c3cccc(C(F)(F)F)c3)ncc2c1C#Cc1nn(C(C)C)c2ncnc(N)c12`, the results for the IC50 in experiment [1] and in experiment [2] were 2300 nM and 435 nM, respectively.

As for `CCn1nc(C#Cc2cccc3cc(-c4cccc(C(F)(F)F)c4)ncc23)c2c(N)ncnc21`, the IC50 in experiment [1] was > 10000 nM; in experiment [2], 1110 nM.

The values above are taken from BindingDB's records for doi:10.1016/j.ejmech.2018.01.053 (University of Southern California, 2018).
